According to patent US20080051466A1, “Isoalpha acid based protein kinase modulation cancer treatment” (Metaproteomics, LLC, priority 2006, published 2008):

Assays:
Test in all cases: KinaseProfiler Assay
Assay type in all cases: biochemical
MSSK1 = MSSK1 (Homo sapiens, UniProt Q9UPE1); settings: read-out: MSSK1, % of Control
Ros = Ros (Homo sapiens, UniProt P08922); settings: read-out: Ros, % of Control
Ron = Ron (Homo sapiens, UniProt Q04912); settings: read-out: Ron, % of Control
SGK = SGK (Homo sapiens, UniProt O00141); settings: 5 ug/ml; read-out: SGK, % of Control
TBK1 = target: T1, TBK1 (Homo sapiens, UniProt Q9UHD2); settings: read-out: TBK1, % of Control
T1 sequence (Q9UHD2 1-729): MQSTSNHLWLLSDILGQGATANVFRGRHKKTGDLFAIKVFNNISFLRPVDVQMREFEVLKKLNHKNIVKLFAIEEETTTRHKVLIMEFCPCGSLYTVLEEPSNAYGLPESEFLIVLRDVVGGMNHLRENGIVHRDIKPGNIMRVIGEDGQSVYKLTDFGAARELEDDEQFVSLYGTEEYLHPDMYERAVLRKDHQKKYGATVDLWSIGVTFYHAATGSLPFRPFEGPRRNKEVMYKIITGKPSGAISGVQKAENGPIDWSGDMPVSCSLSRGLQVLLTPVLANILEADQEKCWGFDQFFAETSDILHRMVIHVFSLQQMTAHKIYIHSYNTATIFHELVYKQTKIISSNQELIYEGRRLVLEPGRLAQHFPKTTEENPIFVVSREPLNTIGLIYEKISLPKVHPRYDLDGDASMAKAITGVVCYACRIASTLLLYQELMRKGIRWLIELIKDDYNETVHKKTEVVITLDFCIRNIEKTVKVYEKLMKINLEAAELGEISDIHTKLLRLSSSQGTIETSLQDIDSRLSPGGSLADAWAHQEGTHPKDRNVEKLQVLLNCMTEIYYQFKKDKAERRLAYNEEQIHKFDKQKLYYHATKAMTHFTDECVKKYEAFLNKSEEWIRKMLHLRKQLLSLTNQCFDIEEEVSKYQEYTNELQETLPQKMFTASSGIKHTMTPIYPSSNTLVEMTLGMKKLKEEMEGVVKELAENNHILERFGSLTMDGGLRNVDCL

ZIPK = ZIPK (Homo sapiens, UniProt O43293); settings: read-out: ZIPK, % of Control
ErbB4 = ErbB4 (Homo sapiens, UniProt Q15303); settings: read-out: ErbB4, % of Control
PKCα = PKCα (Homo sapiens, UniProt P17252); settings: read-out: PKCα, % of Control
CK1γ1 = CK1γ1 (Homo sapiens, UniProt Q9HCP0); settings: read-out: CK1γ1, % of Control
GSK3α = GSK3α (Homo sapiens, UniProt P49840); settings: read-out: GSK3α, % of Control
cSRC = cSRC (Homo sapiens, UniProt P12931); settings: read-out: cSRC, % of Control
MSK2 = MSK2 (Homo sapiens, UniProt O75676); settings: read-out: MSK2, % of Control
CDK3/cyclinE = CDK3/cyclinE (Homo sapiens, UniProt Q00526); settings: 50 ug/ml; read-out: CDK3/cyclinE, % of Control
DAPK1 = DAPK1 (Homo sapiens, UniProt P53355); settings: read-out: DAPK1, % of Control
PRAK = PRAK (Homo sapiens, UniProt Q8IW41); settings: read-out: PRAK, % of Control
PKBγ = PKBγ (Homo sapiens, UniProt Q9Y243); settings: read-out: PKBγ, % of Control
MINK = MINK (Homo sapiens, UniProt Q8N4C8); settings: read-out: MINK, % of Control
CDK5/p35 = CDK5/p35 (Homo sapiens, UniProt Q00535); settings: read-out: CDK5/p35, % of Control

Chain of GSK3α (P49840 whole entry): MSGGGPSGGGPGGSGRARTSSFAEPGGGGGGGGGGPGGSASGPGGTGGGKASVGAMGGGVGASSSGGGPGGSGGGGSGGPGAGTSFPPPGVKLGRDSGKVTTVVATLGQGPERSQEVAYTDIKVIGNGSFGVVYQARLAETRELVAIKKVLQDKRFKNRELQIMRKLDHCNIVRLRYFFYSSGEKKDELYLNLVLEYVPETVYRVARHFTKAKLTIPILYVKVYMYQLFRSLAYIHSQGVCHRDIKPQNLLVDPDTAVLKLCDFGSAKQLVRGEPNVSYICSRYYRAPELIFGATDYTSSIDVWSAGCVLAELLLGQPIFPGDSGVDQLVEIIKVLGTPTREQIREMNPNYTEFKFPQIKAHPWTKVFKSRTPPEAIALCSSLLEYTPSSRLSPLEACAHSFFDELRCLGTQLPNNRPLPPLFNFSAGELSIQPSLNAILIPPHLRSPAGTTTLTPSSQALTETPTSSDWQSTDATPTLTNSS
Chain of ZIPK (O43293 whole entry): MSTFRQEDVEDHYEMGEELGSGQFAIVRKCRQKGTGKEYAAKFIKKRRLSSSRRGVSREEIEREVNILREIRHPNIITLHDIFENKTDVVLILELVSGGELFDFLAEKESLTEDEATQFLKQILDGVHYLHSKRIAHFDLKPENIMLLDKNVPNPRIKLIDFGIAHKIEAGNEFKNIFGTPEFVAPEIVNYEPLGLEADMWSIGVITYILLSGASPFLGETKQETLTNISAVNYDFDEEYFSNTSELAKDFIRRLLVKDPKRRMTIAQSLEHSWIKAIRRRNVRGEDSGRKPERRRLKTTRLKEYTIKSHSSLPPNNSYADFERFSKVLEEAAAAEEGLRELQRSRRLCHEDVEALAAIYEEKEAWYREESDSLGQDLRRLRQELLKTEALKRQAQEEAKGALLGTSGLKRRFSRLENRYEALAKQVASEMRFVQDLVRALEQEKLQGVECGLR
Chain of ErbB4 (Q15303 26-1308): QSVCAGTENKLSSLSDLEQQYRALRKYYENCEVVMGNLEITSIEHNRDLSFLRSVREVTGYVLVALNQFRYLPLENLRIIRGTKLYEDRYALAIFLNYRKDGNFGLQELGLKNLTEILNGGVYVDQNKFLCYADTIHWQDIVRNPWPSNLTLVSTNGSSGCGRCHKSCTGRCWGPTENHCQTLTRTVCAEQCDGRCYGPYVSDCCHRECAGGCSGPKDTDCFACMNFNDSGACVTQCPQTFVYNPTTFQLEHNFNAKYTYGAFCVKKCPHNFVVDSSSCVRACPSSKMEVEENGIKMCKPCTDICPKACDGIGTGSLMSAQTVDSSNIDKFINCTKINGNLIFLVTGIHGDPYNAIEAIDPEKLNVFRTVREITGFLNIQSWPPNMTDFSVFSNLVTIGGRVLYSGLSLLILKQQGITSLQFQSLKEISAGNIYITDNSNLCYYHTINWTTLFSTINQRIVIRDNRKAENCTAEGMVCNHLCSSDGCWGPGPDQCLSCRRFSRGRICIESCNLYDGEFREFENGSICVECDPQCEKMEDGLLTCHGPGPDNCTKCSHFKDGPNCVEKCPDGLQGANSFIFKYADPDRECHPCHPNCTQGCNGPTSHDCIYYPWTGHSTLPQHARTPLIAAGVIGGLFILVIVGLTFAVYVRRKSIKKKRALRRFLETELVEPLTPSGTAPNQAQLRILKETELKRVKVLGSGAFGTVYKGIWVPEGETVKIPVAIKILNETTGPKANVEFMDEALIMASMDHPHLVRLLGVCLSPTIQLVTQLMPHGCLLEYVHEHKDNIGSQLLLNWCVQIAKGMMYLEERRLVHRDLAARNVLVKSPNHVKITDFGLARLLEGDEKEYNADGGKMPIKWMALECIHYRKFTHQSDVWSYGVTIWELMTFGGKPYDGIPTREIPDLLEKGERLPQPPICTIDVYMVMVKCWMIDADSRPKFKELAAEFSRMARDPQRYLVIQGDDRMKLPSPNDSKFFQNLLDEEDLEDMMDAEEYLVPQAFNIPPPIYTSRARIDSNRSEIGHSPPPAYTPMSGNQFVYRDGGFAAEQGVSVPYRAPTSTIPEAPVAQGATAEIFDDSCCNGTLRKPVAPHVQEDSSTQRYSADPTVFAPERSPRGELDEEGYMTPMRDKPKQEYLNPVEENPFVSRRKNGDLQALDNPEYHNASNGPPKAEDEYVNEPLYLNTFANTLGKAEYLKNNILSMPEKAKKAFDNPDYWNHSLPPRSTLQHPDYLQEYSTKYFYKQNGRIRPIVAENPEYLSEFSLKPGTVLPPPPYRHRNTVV
Chain of MSK2 (O75676 whole entry): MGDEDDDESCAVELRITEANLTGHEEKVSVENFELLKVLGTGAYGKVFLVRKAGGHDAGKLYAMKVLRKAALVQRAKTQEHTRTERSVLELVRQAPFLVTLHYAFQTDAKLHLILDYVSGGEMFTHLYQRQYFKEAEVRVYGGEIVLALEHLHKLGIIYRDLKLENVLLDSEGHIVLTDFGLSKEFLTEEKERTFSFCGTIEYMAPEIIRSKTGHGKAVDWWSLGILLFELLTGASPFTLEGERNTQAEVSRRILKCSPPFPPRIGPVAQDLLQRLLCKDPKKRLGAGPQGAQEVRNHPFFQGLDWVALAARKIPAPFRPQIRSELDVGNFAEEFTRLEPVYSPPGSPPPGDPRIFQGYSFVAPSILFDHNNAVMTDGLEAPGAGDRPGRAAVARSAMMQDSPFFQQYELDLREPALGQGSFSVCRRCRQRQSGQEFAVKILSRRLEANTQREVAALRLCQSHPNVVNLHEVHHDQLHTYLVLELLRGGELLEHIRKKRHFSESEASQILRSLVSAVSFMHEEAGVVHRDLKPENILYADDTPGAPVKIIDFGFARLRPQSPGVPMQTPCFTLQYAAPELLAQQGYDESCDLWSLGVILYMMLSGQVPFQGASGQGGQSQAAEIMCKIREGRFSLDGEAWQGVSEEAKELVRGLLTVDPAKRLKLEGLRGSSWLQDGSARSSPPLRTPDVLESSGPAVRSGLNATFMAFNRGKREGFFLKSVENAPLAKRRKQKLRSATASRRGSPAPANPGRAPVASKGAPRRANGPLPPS
Chain of MSSK1 (Q9UPE1 whole entry): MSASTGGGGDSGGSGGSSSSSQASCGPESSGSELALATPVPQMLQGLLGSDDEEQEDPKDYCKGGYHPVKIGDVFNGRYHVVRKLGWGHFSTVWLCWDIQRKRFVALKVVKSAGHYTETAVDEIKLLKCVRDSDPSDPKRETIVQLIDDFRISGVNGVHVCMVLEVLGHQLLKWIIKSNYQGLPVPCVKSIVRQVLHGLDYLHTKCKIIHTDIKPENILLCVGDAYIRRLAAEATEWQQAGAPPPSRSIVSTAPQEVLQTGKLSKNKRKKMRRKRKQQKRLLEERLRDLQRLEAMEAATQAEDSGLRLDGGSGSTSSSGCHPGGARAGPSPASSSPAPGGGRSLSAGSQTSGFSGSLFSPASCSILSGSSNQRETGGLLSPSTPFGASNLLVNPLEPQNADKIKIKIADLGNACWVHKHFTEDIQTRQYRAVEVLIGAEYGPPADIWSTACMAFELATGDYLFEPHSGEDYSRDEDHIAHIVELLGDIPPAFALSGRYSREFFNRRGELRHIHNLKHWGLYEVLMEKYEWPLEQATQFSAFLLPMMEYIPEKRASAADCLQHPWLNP
Chain of CK1γ1 (Q9HCP0 whole entry): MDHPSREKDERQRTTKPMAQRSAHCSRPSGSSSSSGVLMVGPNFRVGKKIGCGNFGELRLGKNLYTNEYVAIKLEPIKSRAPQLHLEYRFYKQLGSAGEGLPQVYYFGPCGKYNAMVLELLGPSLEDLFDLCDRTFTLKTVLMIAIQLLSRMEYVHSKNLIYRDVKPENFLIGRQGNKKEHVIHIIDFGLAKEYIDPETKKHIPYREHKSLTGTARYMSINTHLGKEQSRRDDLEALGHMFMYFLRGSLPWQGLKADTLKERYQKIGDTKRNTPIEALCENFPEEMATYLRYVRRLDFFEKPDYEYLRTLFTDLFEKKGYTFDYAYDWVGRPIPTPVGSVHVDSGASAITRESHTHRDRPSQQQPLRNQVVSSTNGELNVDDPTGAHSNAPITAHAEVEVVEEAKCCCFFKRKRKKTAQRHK

COc1cc(O)c(CC=C(C)C)c(O)c1C(=O)/C=C/c1ccc(O)cc1 [Xanthohumol, xanthohumol]
remaining activity at 1 µg/mL (MSSK1; 1 ug/ml): 47%
remaining activity at 5 µg/mL (MSSK1; 5 ug/ml): 11%
remaining activity at 25 µg/mL (MSSK1; 25 ug/ml): 7%
remaining activity at 50 µg/mL (MSSK1; 50 ug/ml): 5%
remaining activity at 1 µg/mL (Ros; 1 ug/ml): 101%
remaining activity at 5 µg/mL (Ros; 5 ug/ml): 99%
remaining activity at 25 µg/mL (Ros; 25 ug/ml): 85%
remaining activity at 50 µg/mL (Ros; 50 ug/ml): 94%
remaining activity at 1 µg/mL (Ron; 1 ug/ml): 135%
remaining activity at 5 µg/mL (Ron; 5 ug/ml): 127%
remaining activity at 25 µg/mL (Ron; 25 ug/ml): 60%
remaining activity at 50 µg/mL (Ron; 50 ug/ml): 69%
remaining activity at 5 µg/mL (SGK): 84%
remaining activity at 1 µg/mL (TBK1; 1 ug/ml): 104%
remaining activity at 5 µg/mL (TBK1; 5 ug/ml): 71%
remaining activity at 25 µg/mL (TBK1; 25 ug/ml): 45%
remaining activity at 50 µg/mL (TBK1; 50 ug/ml): 42%
remaining activity at 1 µg/mL (ZIPK; 1 ug/ml): 115%
remaining activity at 5 µg/mL (ZIPK; 5 ug/ml): 74%
remaining activity at 25 µg/mL (ZIPK; 25 ug/ml): 20%
remaining activity at 50 µg/mL (ZIPK; 50 ug/ml): 70%
remaining activity at 1 µg/mL (ErbB4; 1 ug/ml): 132%
remaining activity at 5 µg/mL (ErbB4; 5 ug/ml): 85%
remaining activity at 25 µg/mL (ErbB4; 25 ug/ml): 52%
remaining activity at 50 µg/mL (ErbB4; 50 ug/ml): 27%
remaining activity at 1 µg/mL (PKCα; 1 ug/ml): 100%
remaining activity at 5 µg/mL (PKCα; 5 ug/ml): 100%
remaining activity at 25 µg/mL (PKCα; 25 ug/ml): 75%
remaining activity at 50 µg/mL (PKCα; 50 ug/ml): 83%
remaining activity at 1 µg/mL (CK1γ1; 1 ug/ml): 101%
remaining activity at 5 µg/mL (CK1γ1; 5 ug/ml): 79%
remaining activity at 25 µg/mL (CK1γ1; 25 ug/ml): 50%
remaining activity at 50 µg/mL (CK1γ1; 50 ug/ml): 26%
remaining activity at 1 µg/mL (GSK3α; 1 ug/ml): 102%
remaining activity at 25 µg/mL (GSK3α; 25 ug/ml): 11%
remaining activity at 50 µg/mL (GSK3α; 50 ug/ml): -4%
remaining activity at 1 µg/mL (cSRC; 1 ug/ml): 92%
remaining activity at 5 µg/mL (cSRC; 5 ug/ml): 50%
remaining activity at 25 µg/mL (cSRC; 25 ug/ml): 27%
remaining activity at 50 µg/mL (cSRC; 50 ug/ml): 21%
remaining activity at 1 µg/mL (MSK2; 1 ug/ml): 126%
remaining activity at 5 µg/mL (MSK2; 5 ug/ml): 61%
remaining activity at 25 µg/mL (MSK2; 25 ug/ml): 8%
remaining activity at 50 µg/mL (MSK2; 50 ug/ml): 19%
remaining activity at 50 µg/mL (CDK3/cyclinE): 8%
remaining activity at 5 µg/mL (DAPK1; 5 ug/ml): 85%
remaining activity at 50 µg/mL (DAPK1; 50 ug/ml): 20%
remaining activity at 1 µg/mL (PRAK; 1 ug/ml): 101%
remaining activity at 5 µg/mL (PRAK; 5 ug/ml): 53%
remaining activity at 1 µg/mL (PKBγ; 1 ug/ml): 104%
remaining activity at 5 µg/mL (PKBγ; 5 ug/ml): 104%
remaining activity at 25 µg/mL (PKBγ; 25 ug/ml): 12%
remaining activity at 1 µg/mL (MINK; 1 ug/ml): 42%
remaining activity at 5 µg/mL (MINK; 5 ug/ml): 10%
remaining activity at 25 µg/mL (MINK; 25 ug/ml): 5%
remaining activity at 50 µg/mL (MINK; 50 ug/ml): 7%
remaining activity at 25 µg/mL (CDK5/p35; 25 ug/ml): 41%
remaining activity at 50 µg/mL (CDK5/p35; 50 ug/ml): 44%
